Measured values as given in PubChem BioAssay AID2060889 (Molecular Pharmacology Branch, DTP, NCI, 2025).
pIC50: −log10 of the molar value.

Tested on: LG0567-F671-PDC complex spheroids viability
Experiment: Anticancer human tumor LG0567-F671-PDC patient-derived lung adenocarcinoma cell line growth inhibition [RAS]
Details: for pIC50: curve of first compound; for viability, T/C: stronger effect = lower value
Procedure, shortened: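 Multi-cell-type spheroids: tumor cells plus HUVEC endothelial cells and mesenchymal stem cells. RAS-pathway inhibitors were combined with targeted agents, each dosed in half-log steps down from clinical Cmax, or from 10 microM when Cmax was unknown.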
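Also: spheroids exposed to compound for seven days before readout.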
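For pIC50 in this document: luminescence signal used as a proxy for viable cells.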

With CC1(C)CCC(Nc2ncc(C(F)(F)F)c(-c3c[nH]c4c(P(C)(C)=O)c(C#N)ccc34)n2)CN1 (configuration not stated) + CCn1c(-c2cc(N3CCN(C)CC3)cnc2C(C)OC)c2c3cc(ccc31)-c1csc(n1)CC(NC(=O)C1CC1C)C(=O)N1CCCC(N1)C(=O)OCC(C)(C)C2 the pIC50 (second compound 0.000949 µM) was > 9.02, the pIC50 (second compound 0.003 µM) was > 9.02 and the pIC50 (second compound 0.00949 µM) was > 9.02. For the same compound, the pIC50 (second compound 0.03 µM) was > 9.02, the pIC50 (second compound 0.0949 µM) was > 9.02 and the pIC50 (second compound 0.3 µM) was > 9.02. The viability, T/C (second compound 0.000949 µM, first compound 0.000949 µM) was 18.6%, the viability, T/C (second compound 0.000949 µM, first compound 0.003 µM) was 17.4% and the viability, T/C (second compound 0.000949 µM, first compound 0.00949 µM) was 15.6%. For the same compound, the viability, T/C (second compound 0.000949 µM, first compound 0.03 µM) was 18.6%, the viability, T/C (second compound 0.000949 µM, first compound 0.0949 µM) was 19.4% and the viability, T/C (second compound 0.000949 µM, first compound 0.3 µM) was 20.3%. The viability, T/C (second compound 0.003 µM, first compound 0.000949 µM) was 9.04%, the viability, T/C (second compound 0.003 µM, first compound 0.003 µM) was 8.93% and the viability, T/C (second compound 0.003 µM, first compound 0.00949 µM) was 9.61%. The viability, T/C (second compound 0.003 µM, first compound 0.03 µM) was 8.68%, the viability, T/C (second compound 0.003 µM, first compound 0.0949 µM) was 10.7% and the viability, T/C (second compound 0.003 µM, first compound 0.3 µM) was 11.1%. For the same compound, the viability, T/C (second compound 0.00949 µM, first compound 0.000949 µM) was 5.65%, the viability, T/C (second compound 0.00949 µM, first compound 0.003 µM) was 5.79% and the viability, T/C (second compound 0.00949 µM, first compound 0.00949 µM) was 5.79%. It also gave a viability, T/C (second compound 0.00949 µM, first compound 0.03 µM) of 6.44%, a viability, T/C (second compound 0.00949 µM, first compound 0.0949 µM) of 6.98% and a viability, T/C (second compound 0.00949 µM, first compound 0.3 µM) of 7.15%. It also gave a viability, T/C (second compound 0.03 µM, first compound 0.000949 µM) of 4.09%, a viability, T/C (second compound 0.03 µM, first compound 0.003 µM) of 4.19% and a viability, T/C (second compound 0.03 µM, first compound 0.00949 µM) of 4.86%. The viability, T/C (second compound 0.03 µM, first compound 0.03 µM) was 4.81%, the viability, T/C (second compound 0.03 µM, first compound 0.0949 µM) was 5.36% and the viability, T/C (second compound 0.03 µM, first compound 0.3 µM) was 5.18%. The viability, T/C (second compound 0.0949 µM, first compound 0.000949 µM) was 2.85%, the viability, T/C (second compound 0.0949 µM, first compound 0.003 µM) was 3.65% and the viability, T/C (second compound 0.0949 µM, first compound 0.00949 µM) was 4.21%. The viability, T/C (second compound 0.0949 µM, first compound 0.03 µM) was 4.25%, the viability, T/C (second compound 0.0949 µM, first compound 0.0949 µM) was 4.38% and the viability, T/C (second compound 0.0949 µM, first compound 0.3 µM) was 4.66%. It also gave a viability, T/C (second compound 0.3 µM, first compound 0.000949 µM) of 2.87%, a viability, T/C (second compound 0.3 µM, first compound 0.003 µM) of 2.91% and a viability, T/C (second compound 0.3 µM, first compound 0.00949 µM) of 3.44%. The viability, T/C (second compound 0.3 µM, first compound 0.03 µM) was 3.64%, the viability, T/C (second compound 0.3 µM, first compound 0.0949 µM) was 4.02% and the viability, T/C (second compound 0.3 µM, first compound 0.3 µM) was 3.88%.
